Values joined by “and” are separate entries in the source; they are usually repeats but may differ in a detail not shown here. Equal entries are not always repeated. Where two headings read alike, the source gives them in different places.
Assays:
[1] = calibration standards, assigned values, no reference given; cited from earlier work
[2] = calibration standards, assigned values, no reference given; cited from earlier work; remark: listed apart in the source
[3] = test system: LN-229 glioblastoma cells; experiment: Antiproliferative activity (MTS), LN-229; assay type: cell-based, human; settings: MTS assay, 72 h
Protocol: (§1) These cell lines were characterized by different mutation profiles, the main one being the variable status of the p53 protein. In detail, U87MG cells have a wild-type p53 protein, while astrocytoma and the rest of GBM cells harbor mutated p53 protein. Additional assays were performed on MCF7 breast cancer and AsPC-1 pancreatic cancer cells. The wide range of tested lines was aimed at screening the anticancer potential of the tested compounds. The first represents one of the most common and the second one of the most aggressive cancers in the world. Comparing the activity of compounds on GBM cells to other types of cancer may reveal their selectivity and usefulness in targeted therapies. The cytotoxicity of the compounds on normal human astrocytes (NHA) and Feline catus astrocyte (PG-4) was determined. Tests on normal lines serve to verify the potential toxicity of the tested compounds on healthy cells. Due to the targeting of CNS tumors, astrocytes were selected as normal lines.
(§2) The detailed procedure is presented in previous publications.[53] […] Cells were cultured in appropriate media, supplemented with FBS, antibiotics, and other supplements, and incubated at 37 °C with 5% CO2. […] Cell viability was assessed using the MTS assay, and the inhibitory concentration (IC50) was calculated using GraphPad Prism 8.0. Each compound was tested in triplicate across multiple experiments.

U-251 glioblastoma cells = experiment: Antiproliferative activity (MTS), U-251; assay type: cell-based, human; settings: MTS assay, 72 h
Protocol: as §1, §2

[4] = test system: normal human astrocytes (NHA); experiment: Cytotoxicity (MTS), normal human astrocytes; assay type: cell-based; settings: 72 h, normal human astrocytes, MTS assay
Protocol: as §1, with “The chosen group of ligands was further examined for their ability to inhibit proliferation across multiple cancer cell lines related to the CNS system (1321N1, U87MG, LN-229, and U-251). These” for “These”
(§3) The detailed procedure is presented in previous publications.[53] Briefly, the study utilized various human cancer and normal cell lines, including LN-229 (glioblastoma), MCF7 (breast carcinoma), HepG2 (hepatoma), U-251 (glioblastoma), U87MG (glioblastoma), AsPC-1 (pancreatic adenocarcinoma), and NHA (normal human astrocytes). Cells were cultured in appropriate media, supplemented with FBS, antibiotics, and other supplements, and incubated at 37 °C with 5% CO2. Compounds were dissolved in DMSO, prepared at various concentrations (1–25 μM), and applied to the cells for 72 h. Cell viability was assessed using the MTS assay, and the inhibitory concentration (IC50) was calculated using GraphPad Prism 8.0. Each compound was tested in triplicate across multiple experiments.

[5] = Metabolic stability in mouse liver microsomes; assay type: in vitro ADME; settings: MLMs, 120 min
From the text: Moving on to the next parameter, which is metabolism, we determined metabolic stability, using mouse liver microsomes (MLMs). […]
Main metabolic pathways are marked in red.

[6] = molecular target: T1, human serum albumin (HSA) (Homo sapiens, UniProt P02768); experiment: HSA binding by biochromatography (HSA column); assay type: in vitro ADME
T1 construct: purchased
T1 sequence (P02768 25-609): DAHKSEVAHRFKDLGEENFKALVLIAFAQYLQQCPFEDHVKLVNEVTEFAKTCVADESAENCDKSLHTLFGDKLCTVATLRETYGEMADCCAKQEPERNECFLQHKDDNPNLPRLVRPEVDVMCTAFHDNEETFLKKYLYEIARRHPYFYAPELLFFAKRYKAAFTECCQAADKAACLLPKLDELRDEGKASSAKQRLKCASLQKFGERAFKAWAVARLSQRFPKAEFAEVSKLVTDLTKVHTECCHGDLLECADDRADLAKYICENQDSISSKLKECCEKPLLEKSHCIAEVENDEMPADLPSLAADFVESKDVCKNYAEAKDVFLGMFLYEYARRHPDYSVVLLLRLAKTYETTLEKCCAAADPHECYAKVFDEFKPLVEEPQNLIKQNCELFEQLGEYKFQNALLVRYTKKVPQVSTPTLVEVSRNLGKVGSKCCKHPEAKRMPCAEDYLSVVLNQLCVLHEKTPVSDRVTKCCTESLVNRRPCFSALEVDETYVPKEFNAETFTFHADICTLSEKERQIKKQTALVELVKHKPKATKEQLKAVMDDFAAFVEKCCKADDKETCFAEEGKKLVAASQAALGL
Protocol: (§4) Lipophilicity and affinity for phospholipids for each investigated molecule were assessed. Additionally, selected compounds with the highest biological activities have been characterized by their affinity plasma proteins. All experiments were performed using protocols developed by Valko.[35] These methods facilitated the calculation of chromatographic hydrophobicity indices (CHI) and plasma protein binding percentages (%PPB) in a biochromatographic experiment, with results compared to the reference. A detailed description of the experiments is provided in the Supporting Information (SI), along with the raw data. […] Although high lipophilicity may limit the medical use of the analyzed compounds since they may tend to accumulate excessively in the human body, it is remarkable that several clinically used drugs also have high lipophilicity. […] (Table 5).
(§5) The detailed procedure is presented in previous publications.[53] High-performance liquid chromatography (HPLC) analyses were conducted using the Prominence-1 LC-2030C 3D system (Shimadzu) with a DAD detector, employing three different chromatographic columns with specific stationary phases and mobile phases. The analysis was performed at 30 °C with a flow rate of 1.5 mL/min for IAM and C18 columns, and 0.9 mL/min for the Chiralpak column. Calibration standards for the columns were sourced from various suppliers and dissolved in dimethyl sulfoxide. Detection occurred in the UV range (190–300 nm) with a 5 μL injection volume. Each compound was analyzed in triplicate. Retention times for the tested compounds and calibration standards are provided in the Supporting Information (Tables S1 and S2).

MCF7 breast cancer cells = experiment: Antiproliferative activity (MTS), MCF7; assay type: cell-based, human; settings: MTS assay, 72 h
Protocol: as §1, §2

5-HT6 = molecular target: T2, 5-HT6 (Homo sapiens, UniProt P50406); experiment: Radioligand binding assay, 5-HT6 ([3H]-LSD); settings: HEK293 cell line with human 5-HT6R; 2 nM [3H]-LSD
T2 construct: expressed in transfected cells; host or cells: HEK293
T2 sequence (P50406 whole entry): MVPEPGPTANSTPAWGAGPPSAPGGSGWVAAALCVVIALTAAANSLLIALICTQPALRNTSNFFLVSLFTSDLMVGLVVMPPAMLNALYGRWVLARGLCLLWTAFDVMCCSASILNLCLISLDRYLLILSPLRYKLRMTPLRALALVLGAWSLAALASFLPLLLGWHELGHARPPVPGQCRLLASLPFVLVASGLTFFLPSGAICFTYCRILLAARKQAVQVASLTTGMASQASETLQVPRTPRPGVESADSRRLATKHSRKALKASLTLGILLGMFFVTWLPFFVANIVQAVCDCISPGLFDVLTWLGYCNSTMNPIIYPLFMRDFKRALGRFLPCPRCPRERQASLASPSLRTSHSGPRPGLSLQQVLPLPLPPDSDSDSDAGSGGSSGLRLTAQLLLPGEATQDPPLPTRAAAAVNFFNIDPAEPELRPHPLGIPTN
Protocol: Ligand affinity for 5-HT6 receptors was subsequently tested with a radioligand binding assay, using the HEK293 cell line with human 5-HT6R, aiming to select compounds with the strongest affinity. Three compounds belonging to 2-naphthalenesulfonamide derivatives of 3,4-dihydroquinazolin-2-amines were obtained (Table 1).
The detailed procedure is presented in previous publications.[53] Assays were performed by incubating for 1 h at 37 °C (room temperature for 5-HT1A) in 200 μL volumes on 96-well plates. The reaction was terminated by rapid filtration using Unifilter plates, and radioactivity on the filters was measured with a PerkinElmer Microbeta plate reader. Radioligands used were:
Eight concentrations (10^–4 to 10^–11 M) were tested in triplicate for each compound. Inhibition constants (Ki) were calculated using the Cheng–Prusoff equation.[54] The results are expressed as the means of at least two independent experiments.

[7] = Affinity to phospholipids, CHI IAM (Valko protocol); assay type: physicochemical; settings: IAM column
Protocol: as §4, §5

U87MG glioblastoma cells = experiment: Antiproliferative activity (MTS), U87MG; assay type: cell-based, human; settings: MTS assay
Protocol: as §1, §2
Supplementary materials - Biological research
B) U87MG glioblastoma multiforme line.
and U87MG glioblastoma multiforme line for C) PP 3; D) PP 6; E) PP 8; F) PP 10; G) PP 11; H) PP

1321N1 astrocytoma cells = experiment: Antiproliferative activity (MTS), 1321N1; assay type: cell-based, human; settings: MTS assay
Protocol: as §1, §2
Supplementary materials - Biological research […]

[8] = Lipophilicity, chromatographic hydrophobicity index on C18 (Valko protocol); assay type: physicochemical
Protocol: as §4, §5

[9] = test system: AsPC-1 pancreatic cancer cells; experiment: Antiproliferative activity (MTS), AsPC-1; assay type: cell-based, human; settings: MTS assay, 72 h
Protocol: as §1, with “The chosen group of ligands was further examined for their ability to inhibit proliferation across multiple cancer cell lines related to the CNS system (1321N1, U87MG, LN-229, and U-251). These” for “These”
as §3

HSA and AGP (24:1) = experiment: in vitro; settings: human, plasma
[10] = test system: HSA and AGP in a ratio 24:1; settings: human

Q: For `CC(=O)c1ccccc1` [Acetophenone], which “CHI IAM of the calibration set” value [1] is on record?
A: The value was 17.2.

Q: And the “CHI C18 at pH 2.6 of the calibration set” value [2]?
A: The value was 64.1.

Q: For `CN(C)C/C=C/C(=O)Nc1cc2c(Nc3ccc(F)c(Cl)c3)ncnc2cc1O[C@H]1CCOC1` [Afatinib, reference compound], which IC50 ([3]; Homo sapiens, LN-229) is on record?
A: Its IC50 is 9.8 µM.

Q: What about the IC50 (U-251 glioblastoma cells; Homo sapiens, U-251) of the same compound?
A: The IC50 was 27 µM.

Q: And the IC50 ([4]; Homo sapiens, Astrocyte)?
A: Its IC50 is 7.5 µM.

Q: For `c1ccc2[nH]cnc2c1` [Benzimidazole], which “CHI C18 at pH 2.6 of the calibration set” value [2] is on record?
A: The value was 6.3.

Q: For `CCCC(=O)c1ccccc1` [Butyrophenone], which “CHI IAM of the calibration set” value [1] is on record?
A: Its value is 32.

Q: What about the “CHI C18 at pH 2.6 of the calibration set” value [2] of the same compound?
A: The value was 87.3.

Q: Which “CHI C18 at pH 2.6 of the calibration set” value [2] does the source give for `COc1cc2c(c(OC)c1OC)-c1ccc(OC)c(=O)cc1[C@@H](NC(C)=O)CC2` [Colichicine] here?
A: The value was 43.9.

Q: For `c1ccc2[nH]ccc2c1` [Indole], which “CHI C18 at pH 2.6 of the calibration set” value [2] is on record?
A: Its value is 72.1.

Q: What does the source list for `CC1NC(NCCCCCCNS(=O)(=O)c2cccc3ccccc23)=Nc2cccc(F)c21` (centres unmarked) [PP 11, N-{6-[(5-Fluoro-4-methyl-3,4-dihydroquinazolin-2-yl)amino]hexyl}naphthalene-1-sulfonamide]?
A: main metabolic pathway [5]: double hydroxylation and double bond reduction; metabolic stability, % of remaining [5]: 74.22%; %HSA ([6]; HSA column): 99.2%; logKHSA ([6]; HSA column): 1.75 and 1.8; IC50 (MCF7 breast cancer cells; Homo sapiens, MCF7): 9.1 ± 0.8 µM; Ki (5-HT6): 0.222 ± 0.056 µM; CHI IAM [7]: 60.1; IC50 (U87MG glioblastoma cells; Homo sapiens, U-87 MG): 8.5 ± 0.7 µM; IC50 ([3]; Homo sapiens, LN-229): > 25 µM; IC50 (1321N1 astrocytoma cells; Homo sapiens, 1321-N1): 5.7 ± 0.1 µM; CHI C18 pH 2.6 [8]: 103.4; CHI C18 pH 7.4 [8]: 103.1; CHI C18 pH 10.5 [8]: 93.1; IC50 (U-251 glioblastoma cells; Homo sapiens, U-251): 12.2 ± 0.3 µM; IC50 ([9]; Homo sapiens, ASPC1): 13.8 ± 0.3 µM; IC50 ([4]; Homo sapiens, Astrocyte): 4.5 µM; IC50 [4]: 4.4 ± 1.3 µM

Q: With `CCC(=O)c1ccccc1` [Propiophenone] as the compound, how does the “CHI IAM of the calibration set” value [1] read?
A: The value was 25.9.

Q: And the “CHI C18 at pH 2.6 of the calibration set” value [2]?
A: The value was 77.4.

Q: With `Cn1c(=O)c2[nH]cnc2n(C)c1=O` [Theophylline] as the compound, how does the “CHI C18 at pH 2.6 of the calibration set” value [2] read?
A: The value was 17.9.

Q: For `CCCCC(=O)c1ccccc1` [Valerophenone], which “CHI IAM of the calibration set” value [1] is on record?
A: The value was 37.3.

Q: And the “CHI C18 at pH 2.6 of the calibration set” value [2]?
A: Its value is 96.4.

Q: For `CC(=O)CC(c1ccccc1)c1c(O)c2ccccc2oc1=O` (centres unmarked) [Warfarin], which fraction unbound (HSA and AGP (24:1)) is on record?
A: Its fraction unbound is 0.015.

Q: What about the “PPB kD” value [10] of the same compound?
A: Its value is 9.5 µM.

Q: For “N-{2-[4-(1,2-Benzothiazol-3-yl)piperazin-1-yl]ethyl}-1,2-dihydroquinazolin-2-amine [PP 21]”, which IC50 (MCF7 breast cancer cells) is on record?
A: Its IC50 is over 25 µM.

Q: And the Ki (5-HT6)?
A: The Ki was 0.605 ± 0.151 µM.

Q: And the IC50 [3]?
A: Its IC50 is 9.9 ± 0.7 µM.

Q: And the IC50 (U-251 glioblastoma cells)?
A: The IC50 was 13 ± 0.4 µM.

Q: What about the IC50 [9] of the same compound?
A: The IC50 was 7.4 ± 0.5 µM.

Q: What about the IC50 [4] of the same compound?
A: Its IC50 is 4.7 ± 0.2 µM.

Q: Which results are given for “N-{2-[4-(1-Benzothiophen-4-yl)piperazin-1-yl]ethyl}-1,2-dihydroquinazolin-2-amine [PP 22]”?
A: %HSA [6]: 98.4%; IC50 (MCF7 breast cancer cells): 14.5 ± 0.2 µM; Ki (5-HT6): 0.278 ± 0.07 µM; CHI IAM [7]: 56.4; IC50 (U87MG glioblastoma cells): 13.8 ± 0.9 µM; IC50 [3]: > 25 µM; IC50 (1321N1 astrocytoma cells): 10.4 ± 0.6 µM; CHI C18 pH 2.6 [8]: 56.4; CHI C18 pH 7.4 [8]: 115.8; CHI C18 pH 10.5 [8]: 168.7; IC50 (U-251 glioblastoma cells): 4.3 ± 0.6 µM; IC50 [9]: 12.5 ± 0.4 µM; IC50 [4]: 8.1 ± 0.2 µM
